Assay results reported in US5955357A, “In-vitro-derived human neutrophil precursor cells” (Nexell Therapeutics Inc., priority 1994, dated 1999).

System: CD15+CD11b- neutrophil precursors
Assay: single cell proliferation assay of sorted neutrophil precursors in hematopoietic growth factors
Format: cell-based, human
Details: after 10 days in culture; for Percent of Total Cells Evaluated, 0 Cells/Wells / Percent of Total Cells Evaluated, 1-4 Cells/Well / Percent of Total Cells Evaluated, 5-8 Cells/Well / Percent of Total Cells Evaluated, 9-16 Cells/Well / Percent of Total Cells Evaluated, 17-32 Cells/Well / Percent of Total Cells Evaluated, >32 Cells/Well: Table V, individual growth factors, neutrophil precursors
Procedure: Apheresis samples were collected after peripheral blood counts reached 1000/ul from patients mobilized with G-CSF (10 ug/kg/day) following cyclophosphamide/VP16 chemotherapy. Apheresis was performed using the CS-3000® blood cell separator (Fenwal Division, Baxter Healthcare, Deerfield, Ill.). Bone marrow was collected from normal volunteers.
The assays were performed by sorting single cells based upon expression of CD15 and CD11b by flow cytometry into multiwell plates containing 10 ul of culture media with various growth factor combinations. […] The same studies were performed on fresh bone marrow for comparison. Plates containing the sorted cells were incubated at 37° C. and the number of cells in each well were counted on days 1, 3 and 10. For further characterization of antigenic expression, cells at varying timepoints of culture were stained with the following antigenic combinations: FITC-CD15/PE-CD11b, FITC-CD71/PE-CD45RA,and FITC-CD67/PE-CD34.
To assess the absolute requirement of growth factors on the proliferation of neutrophil precursors, single cells were plated in the presence or absence of all four growth factors described above. The single cell cultures were incubated for an additional 10 days and then each well was scored for the number of total cells. The wells were categorized according to the number of cells per well.
To determine which single growth factor or combination of growth factors would support proliferation of neutrophil precursors, various combinations of the above growth factors were tested in the single cell proliferation assay.

| Molecule | Percent of Total Cells Evaluated, 0 Cells/Wells [%] | Percent of Total Cells Evaluated, 1-4 Cells/Well [%] | Percent of Total Cells Evaluated, 5-8 Cells/Well [%] | Percent of Total Cells Evaluated, 9-16 Cells/Well [%] | Percent of Total Cells Evaluated, 17-32 Cells/Well [%] | Percent of Total Cells Evaluated, >32 Cells/Well [%] | fraction of proliferating neutrophil precursors and extent of proliferation, compared with other growth factors (result in words) |
| --- | --- | --- | --- | --- | --- | --- | --- |
| SCF: hematopoietic growth factor, stem cell factor | 25 | 52 | 13 | 8 | 2 | 1 | – |
| GM-CSF: hematopoietic growth factor, granulocyte and macrophage colony-stimulating factor | 33 | 44 | 12 | 6 | 4 | 1 | – |
| G-CSF: hematopoietic growth factor, granulocyte colony-stimulating factor (protein, UniProt P09919 31-207, looked up) Granulocyte …: TPLGPASSLPQSFLLKCLEQVRKIQGDGAALQEKLVSECATYKLCHPEELVLLGHSLGIPWAPLSSCPSQALQLAGCLSQLHSGLFLYQGLLQALEGISPELGPTLDTLQLDVADFATTIWQQMEELGMAPALQPTQGAMPAFASAFQRRAGGVLVASHLQSFLEVSYRVLRHLAQP | 22 | 40 | 10 | 10 | 6 | 13 | enhances proliferation to a greater extent then either GM-CSF, IL-3 or SCF alone |
